Measured values taken from patent US20260193267A1, “Solid Forms of Naphthyridine Compounds” (AMGEN INC., priority 2023, published 2026).
“Also recorded” adds a separate entry of the source.

Tests used:
[1] = Solubility of Form 1 in aqueous media; assay type: physicochemical; conditions: aqueous buffer; aqueous media at pHs of 1-8
[2] = Dynamic vapor sorption (DVS) moisture sorption; assay type: physicochemical
Procedure: DVS—Method 1: DVS was measured via a SMS (Surface Measurement Systems) DVS Resolution. The relative humidity at 25° C. was calibrated against the deliquescence point of LiCl, Mg(NO3)2 and KCl.
DVS—Method 2: Moisture sorption data was collected using a DVS vapor sorption analyzer. A sample size of approximately 10-20 mg was used in a glass or metal pan. Hygroscopicity was evaluated from 40 to 90 to 0 to 90 to 40% RH in increments of 5% RH or from 40 to 0 to 95 to 0 to 95% RH in increments of 10% RH. Data for adsorption and desorption cycles were collected. Equilibrium criteria were set at 0.002% weight change in 1 minute with a maximum equilibration time of 180 minutes.

[3] = Stability under compression forces representative of tableting; assay type: physicochemical; conditions: compression up to 200 MPa
[4] = Physical and chemical stability in excipient blends (ssNMR); assay type: physicochemical; conditions: 40° C./75% RH, 25° C./60% RH open, 40° C./75% RH closed
physchem = assay: physchem
Description: Suitable nonlimiting examples of counterions for forming salts with Compound A include benzene sulfonic acid (BSA), toluene sulfonic acid (TSA), sulfuric acid, hydrochloric acid, malonic acid, naphthalene-2-sulfonic acid, methane sulfonic acid, oxalic acid, tartaric acid, ethane sulfonic acid, cyclamic acid, maleic acid, or phosphoric acid.

Nc1nc2cnc(C(=O)N3CCOC[C@@H]3c3ccc(C(F)(F)F)cc3)cc2c2c1COC2 [Form 1]
solubility [1]: > 10 µg/mL
hygroscopicity by DVS ([2]; 0% to 95% relative humidity at 25° C.): non-hygroscopic; also recorded: non-hygroscopicity
change in form on DVS ([2]; 0-95% relative humidity at 25° C.): no observable change in form
form change by DSC and XRPD after compression [3]: no form change
physical and chemical stability by ssNMR [4]: physically and chemically stable
degradation related to the Maillard reaction ([4]; after 2 weeks): no evidence of degradation related to the Maillard reaction

Nc1nc2cnc(C(=O)N3CCOC[C@@H]3c3ccc(C(F)(F)F)cc3)cc2c2c1COC2 [Compound A]
pKa (physchem): 4.27
